Test results taken from US7138361B2, “Herbicidal heterocycles” (E. I. du Pont de Nemours and Company, priority 2000, dated 2006).

Key:
Format in all cases: in vivo
[1] = system: Surinam grass (Brachiaria decumbens); experiment: Test B postemergence; conditions: 13 to 15 days
Summary of the method: (§1)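 Seeds were planted and sprayed preemergence with test chemical in a non-phytotoxic solvent mixture containing surfactant; postemergence plants (2 to 18 cm, 1- to 4-leaf stage) received the same formulation. Greenhouse hold 13 to 15 days, then visual rating versus untreated controls on a 0–100 scale (0 no effect, 100 complete control).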

wild oat (Avena fatua) = experiment: Test B postemergence; conditions: 13 to 15 days
Summary of the method: as §1

[2] = system: wheat (Triticum aestivum); experiment: Test B postemergence; conditions: 13 to 15 days
Summary of the method: as §1

[3] = system: blackgrass (Alopecurus myosuroides); experiment: Test B postemergence; conditions: 13 to 15 days
Summary of the method: as §1

[4] = system: velvetleaf (Abutilon theophrasti); experiment: Test B postemergence; conditions: 13 to 15 days
Summary of the method: as §1

[5] = system: barnyardgrass (Echinochloa crus-galli); experiment: Test B postemergence; conditions: 13 to 15 days
Summary of the method: as §1

[6] = system: crabgrass (Digitaria sanguinalis); experiment: Test B postemergence; conditions: 13 to 15 days
Summary of the method: as §1

[7] = system: cocklebur (Xanthium strumarium); experiment: Test B postemergence; conditions: 13 to 15 days
Summary of the method: as §1

corn (Zea mays) [8] = experiment: Test B postemergence; conditions: 13 to 15 days
Summary of the method: as §1

[9] = system: lambsquarters (Chenopodium album); experiment: Test B postemergence; conditions: 13 to 15 days
Summary of the method: as §1

[10] = system: morning glory (Ipomoea hederacea); experiment: Test B postemergence; conditions: 13 to 15 days
Summary of the method: as §1

[11] = system: giant foxtail (Setaria faberii); experiment: Test B postemergence; conditions: 13 to 15 days
Summary of the method: as §1

[12] = system: pigweed (Amaranthus retroflexus); experiment: Test B postemergence; conditions: 13 to 15 days
Summary of the method: as §1

Nightshade = experiment: Test C preemergence; conditions: Rate 250 g/ha, visual evaluation after 12 to 14 days
Sunflower = experiment: Test C preemergence; conditions: Rate 125 g/ha, scale 0 to 100, 0 no effect, 100 complete control
[13] = system: Surinam grass (Brachiaria decumbens); experiment: Test B preemergence
Summary of the method: as §1

[14] = system: velvetleaf (Abutilon theophrasti); experiment: Test B preemergence
Summary of the method: as §1

[15] = system: barnyardgrass (Echinochloa crus-galli); experiment: Test B preemergence
Summary of the method: as §1

[16] = system: crabgrass (Digitaria sanguinalis); experiment: Test B preemergence
Summary of the method: as §1

[17] = system: cocklebur (Xanthium strumarium); experiment: Test B preemergence
Summary of the method: as §1

corn (Zea mays) [18] = experiment: Test B preemergence
Summary of the method: as §1

[19] = system: lambsquarters (Chenopodium album); experiment: Test B preemergence
Summary of the method: as §1

[20] = system: morning glory (Ipomoea hederacea); experiment: Test B preemergence
Summary of the method: as §1

[21] = system: giant foxtail (Setaria faberii); experiment: Test B preemergence
Summary of the method: as §1

[22] = system: pigweed (Amaranthus retroflexus); experiment: Test B preemergence
Summary of the method: as §1

rice (Oryza saliva) = experiment: Test B preemergence
Summary of the method: as §1

[23] = Rate 125 g/ha, scale 0 (no effect) to 100 (complete control)
[24] = Rate 500 g/ha, scale 0 to 100, 0 is no effect, 100 is complete control
[25] = Preemergence, Rate 500 g/ha, scale 0 to 100, 0 no effect, 100 complete control
[26] = preemergence, Rate 125 g/ha, scale 0 to 100, 0 no effect, 100 complete control
[27] = preemergence, Rate 125 g/ha, scale of 0 to 100 where 0 is no effect and 100 is complete control, 13 to 15 days

O=C1C(n2ccc(C3CCC3)n2)SCN1c1cccc(OC(F)F)c1 (stereo not shown) [Compound 45]
Plant response rating, Surinam grass [1, 23]: 0
Plant response rating, Surinam grass [1, 24]: 0
Plant response rating, Wild Oat (wild oat (Avena fatua); [23]): 0
Plant response rating, Wild Oat (wild oat (Avena fatua); [24]): 0
Plant response rating, Wheat [2, 23]: 0
Plant response rating, Wheat [2, 24]: 0
Plant response rating, Blackgrass [3, 23]: 0
Plant response rating, Blackgrass [3, 24]: 0
Plant response rating, Velvetleaf [4, 23]: 0
Plant response rating, Velvetleaf [4, 24]: 0
Plant response rating, Barnyardgrass [5, 23]: 30
Plant response rating, Barnyardgrass [5, 24]: 100
Plant response rating, Crabgrass [6, 23]: 0
Plant response rating, Crabgrass [6, 24]: 0
Plant response rating, Cocklebur [7, 23]: 20
Plant response rating, Cocklebur [7, 24]: 40
Plant response rating, Corn (corn (Zea mays) [8]; [23]): 0
Plant response rating, Corn (corn (Zea mays) [8]; [24]): 0
Plant response rating, Lambsquarters [9, 23]: 0
Plant response rating, Lambsquarters [9, 24]: 0
Plant response rating, Morningglory [10, 23]: 0
Plant response rating, Morningglory [10, 24]: 0
Plant response rating, Foxtail, Giant [11, 23]: 0
Plant response rating, Foxtail, Giant [11, 24]: 0
Plant response rating, Pigweed [12, 23]: 0
Plant response rating, Pigweed [12, 24]: 0
Plant response rating (0 to 100), Nightshade (Nightshade): 0
Plant response rating, Sunflower (Sunflower): 20
Plant response rating, Surinam grass [13, 25]: 80
Plant response rating, Surinam grass [13, 26]: 70
Plant response rating, Velvetleaf [14, 25]: 0
Plant response rating, Barnyardgrass [15, 25]: 100
Plant response rating, Barnyardgrass [15, 26]: 80
Plant response rating, Crabgrass [16, 25]: 100
Plant response rating, Crabgrass [16, 26]: 30
Plant response rating, Cocklebur [17, 25]: 0
Plant response rating, Cocklebur [17, 26]: 0
Plant response rating, Corn (corn (Zea mays) [18]; [25]): 0
Plant response rating, Corn (corn (Zea mays) [18]; [26]): 0
Plant response rating, Lambsquarters [19, 25]: 100
Plant response rating, Lambsquarters [19, 26]: 100
Plant response rating, Morningglory [20, 25]: 0
Plant response rating, Foxtail, Giant [21, 25]: 100
Plant response rating, Foxtail, Giant [21, 26]: 100
Plant response rating, Pigweed [22, 25]: 100
Plant response rating, Rice (rice (Oryza saliva); [25]): 60

CC(C)(C)c1ccn(C2CCN(c3cccc(OC(F)(F)F)c3)C2=O)n1 (stereo not shown) [Compound 49]
Plant response rating, Surinam grass [1, 23]: 0
Plant response rating, Surinam grass [1, 24]: 90
Plant response rating, Wild Oat (wild oat (Avena fatua); [23]): 0
Plant response rating, Wild Oat (wild oat (Avena fatua); [24]): 30
Plant response rating, Wheat [2, 23]: 0
Plant response rating, Wheat [2, 24]: 0
Plant response rating, Blackgrass [3, 23]: 0
Plant response rating, Blackgrass [3, 24]: 60
Plant response rating, Velvetleaf [4, 23]: 0
Plant response rating, Velvetleaf [4, 24]: 40
Plant response rating, Barnyardgrass [5, 23]: 0
Plant response rating, Barnyardgrass [5, 24]: 80
Plant response rating, Crabgrass [6, 23]: 0
Plant response rating, Crabgrass [6, 24]: 40
Plant response rating, Cocklebur [7, 23]: 0
Plant response rating, Cocklebur [7, 24]: 30
Plant response rating, Corn (corn (Zea mays) [8]; [23]): 0
Plant response rating, Corn (corn (Zea mays) [8]; [24]): 0
Plant response rating, Lambsquarters [9, 23]: 30
Plant response rating, Lambsquarters [9, 24]: 50
Plant response rating, Morningglory [10, 23]: 0
Plant response rating, Morningglory [10, 24]: 30
Plant response rating, Foxtail, Giant [11, 23]: 0
Plant response rating, Foxtail, Giant [11, 24]: 0
Plant response rating, Pigweed [12, 23]: 30
Plant response rating, Pigweed [12, 24]: 30
Plant response rating (0 to 100), Nightshade (Nightshade): 50
Plant response rating, Sunflower (Sunflower): 20
Plant response rating, Surinam grass [13, 25]: 0
Plant response rating, Surinam grass [13, 27]: 0
Plant response rating, Velvetleaf [14, 25]: 0
Plant response rating, Velvetleaf [14, 27]: 0
Plant response rating, Barnyardgrass [15, 25]: 100
Plant response rating, Barnyardgrass [15, 27]: 100
Plant response rating, Crabgrass [16, 25]: 0
Plant response rating, Crabgrass [16, 27]: 0
Plant response rating, Cocklebur [17, 25]: 0
Plant response rating, Cocklebur [17, 27]: 0
Plant response rating, Corn (corn (Zea mays) [18]; [25]): 0
Plant response rating, Corn (corn (Zea mays) [18]; [27]): 0
Plant response rating, Lambsquarters [19, 25]: 100
Plant response rating, Lambsquarters [19, 27]: 100
Plant response rating, Morningglory [20, 25]: 30
Plant response rating, Morningglory [20, 27]: 0
Plant response rating, Foxtail, Giant [21, 25]: 90
Plant response rating, Foxtail, Giant [21, 27]: 0
Plant response rating, Pigweed [22, 25]: 100
Plant response rating, Pigweed [22, 27]: 100
Plant response rating, Rice (rice (Oryza saliva); [25]): 20
Plant response rating, Rice (rice (Oryza saliva); [27]): 0

O=C1C(n2ccc(C3CCCCC3)n2)SCN1c1cccc(OC(F)(F)F)c1 (stereo not shown) [Compound 50]
Plant response rating, Surinam grass [1, 23]: 0
Plant response rating, Surinam grass [1, 24]: 0
Plant response rating, Wild Oat (wild oat (Avena fatua); [23]): 0
Plant response rating, Wild Oat (wild oat (Avena fatua); [24]): 0
Plant response rating, Wheat [2, 23]: 0
Plant response rating, Wheat [2, 24]: 0
Plant response rating, Blackgrass [3, 23]: 0
Plant response rating, Blackgrass [3, 24]: 0
Plant response rating, Velvetleaf [4, 23]: 0
Plant response rating, Velvetleaf [4, 24]: 0
Plant response rating, Barnyardgrass [5, 23]: 0
Plant response rating, Barnyardgrass [5, 24]: 90
Plant response rating, Crabgrass [6, 23]: 30
Plant response rating, Crabgrass [6, 24]: 50
Plant response rating, Cocklebur [7, 23]: 0
Plant response rating, Cocklebur [7, 24]: 50
Plant response rating, Corn (corn (Zea mays) [8]; [23]): 0
Plant response rating, Corn (corn (Zea mays) [8]; [24]): 0
Plant response rating, Lambsquarters [9, 23]: 70
Plant response rating, Lambsquarters [9, 24]: 80
Plant response rating, Morningglory [10, 23]: 0
Plant response rating, Morningglory [10, 24]: 0
Plant response rating, Foxtail, Giant [11, 23]: 0
Plant response rating, Foxtail, Giant [11, 24]: 50
Plant response rating, Pigweed [12, 23]: 0
Plant response rating, Pigweed [12, 24]: 0
Plant response rating (0 to 100), Nightshade (Nightshade): 0
Plant response rating, Sunflower (Sunflower): 30
Plant response rating, Surinam grass [13, 25]: 30
Plant response rating, Surinam grass [13, 27]: 0
Plant response rating, Velvetleaf [14, 25]: 100
Plant response rating, Velvetleaf [14, 27]: 100
Plant response rating, Barnyardgrass [15, 25]: 90
Plant response rating, Barnyardgrass [15, 27]: 0
Plant response rating, Crabgrass [16, 25]: 100
Plant response rating, Crabgrass [16, 27]: 100
Plant response rating, Cocklebur [17, 25]: 0
Plant response rating, Cocklebur [17, 27]: 0
Plant response rating, Corn (corn (Zea mays) [18]; [25]): 0
Plant response rating, Corn (corn (Zea mays) [18]; [27]): 0
Plant response rating, Lambsquarters [19, 25]: 90
Plant response rating, Lambsquarters [19, 27]: 0
Plant response rating, Morningglory [20, 25]: 0
Plant response rating, Morningglory [20, 27]: 0
Plant response rating, Foxtail, Giant [21, 25]: 100
Plant response rating, Foxtail, Giant [21, 27]: 20
Plant response rating, Pigweed [22, 25]: 0
Plant response rating, Pigweed [22, 27]: 0
Plant response rating, Rice (rice (Oryza saliva); [25]): 0
Plant response rating, Rice (rice (Oryza saliva); [27]): 0

O=C1C(n2ccc(C3CCCCC3)n2)OCN1c1cccc(C(F)(F)F)c1 (stereo not shown) [Compound 51]
Plant response rating, Surinam grass [1, 23]: 0
Plant response rating, Surinam grass [1, 24]: 0
Plant response rating, Wild Oat (wild oat (Avena fatua); [23]): 0
Plant response rating, Wild Oat (wild oat (Avena fatua); [24]): 0
Plant response rating, Wheat [2, 23]: 0
Plant response rating, Wheat [2, 24]: 0
Plant response rating, Blackgrass [3, 23]: 0
Plant response rating, Blackgrass [3, 24]: 0
Plant response rating, Velvetleaf [4, 23]: 0
Plant response rating, Velvetleaf [4, 24]: 0
Plant response rating, Barnyardgrass [5, 23]: 0
Plant response rating, Barnyardgrass [5, 24]: 0
Plant response rating, Crabgrass [6, 23]: 0
Plant response rating, Crabgrass [6, 24]: 20
Plant response rating, Cocklebur [7, 23]: 0
Plant response rating, Cocklebur [7, 24]: 0
Plant response rating, Corn (corn (Zea mays) [8]; [23]): 0
Plant response rating, Corn (corn (Zea mays) [8]; [24]): 0
Plant response rating, Lambsquarters [9, 23]: 80
Plant response rating, Lambsquarters [9, 24]: 90
Plant response rating, Morningglory [10, 23]: 0
Plant response rating, Morningglory [10, 24]: 0
Plant response rating, Foxtail, Giant [11, 23]: 0
Plant response rating, Foxtail, Giant [11, 24]: 0
Plant response rating, Pigweed [12, 23]: 0
Plant response rating, Pigweed [12, 24]: 80
Plant response rating (0 to 100), Nightshade (Nightshade): 0
Plant response rating, Sunflower (Sunflower): 0
Plant response rating, Surinam grass [13, 25]: 20
Plant response rating, Surinam grass [13, 27]: 0
Plant response rating, Velvetleaf [14, 25]: 0
Plant response rating, Velvetleaf [14, 27]: 0
Plant response rating, Barnyardgrass [15, 25]: 80
Plant response rating, Barnyardgrass [15, 27]: 80
Plant response rating, Crabgrass [16, 25]: 100
Plant response rating, Crabgrass [16, 27]: 100
Plant response rating, Cocklebur [17, 25]: 0
Plant response rating, Cocklebur [17, 27]: 0
Plant response rating, Corn (corn (Zea mays) [18]; [25]): 0
Plant response rating, Corn (corn (Zea mays) [18]; [27]): 0
Plant response rating, Lambsquarters [19, 25]: 100
Plant response rating, Lambsquarters [19, 27]: 100
Plant response rating, Morningglory [20, 25]: 0
Plant response rating, Morningglory [20, 27]: 0
Plant response rating, Foxtail, Giant [21, 25]: 50
Plant response rating, Foxtail, Giant [21, 27]: 0
Plant response rating, Pigweed [22, 25]: 100
Plant response rating, Pigweed [22, 27]: 0
Plant response rating, Rice (rice (Oryza saliva); [25]): 0
Plant response rating, Rice (rice (Oryza saliva); [27]): 0
